Measured values from the METLIN SMRT retention time set (Domingo-Almenara et al. 2019).

Test: gradient 5% acetonitrile 3 min, to 50% in 2 min, to 85% in 15 min, held 3 min, 100 µL/min
Conditions: column: Zorbax Extend-C18 2.1 x 50 mm; eluents: water / acetonitrile, 0.1% formic acid
Outline: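 Retention times of pure standards were taken from adduct peaks that were selected by computer and manually inspected. Over 3 months, mixtures of ~100 molecules were run by HPLC–quadrupole time-of-flight mass spectrometry in positive and negative ionization mode. The Zorbax Extend-C18 column (2.1 × 50 mm, 1.8 μm) ran at 100 μL/min in water and acetonitrile, each containing 0.1% formic acid, with 40 μL dead volume and 900 μL dwell volume.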

Structure (SMILES)	RP-LC retention time [s]
N#Cc1ccc(C(=O)N2CCOCCNC(=O)[C@@H]3CCC[C@@H]32)cc1	659
O=C(NCc1csc(C2CCCN(C(=O)C3CCCC3)C2)n1)C1CC1 (centres undefined)	671
CC(C)(C)C(=O)N1CC(c2nc(-c3ccc(F)cc3)no2)C2(CCOCC2)C1 (centres undefined)	964
Cc1ccc(NC(=O)c2cc3c(=O)n(C)c4ccccc4n3n2)cc1F	975
NC(=O)C1CCN(Cc2nc(Cn3ccn4nc(-c5ccccc5)cc4c3=O)no2)CC1	618
Cn1c(-c2cccc(C(=O)NCc3cc(F)cc(F)c3)c2)nc2cccnc21	762
O=c1c2nc(-c3ccccc3)cn2ccn1-c1ccc(F)c(Cl)c1	853
Cc1cc(C)nc(N2CCN(c3cc(C)nc4c(-c5ccc(F)cc5)cnn34)CC2)n1	1190
COc1ccc(-c2noc(C3CCCN3C(=O)Nc3ccc4c(c3)OCO4)n2)cc1 (centres undefined)	884
Cc1ccc(C)c(NC(=O)Cn2c(C)nc3onc(C)c3c2=O)c1	800
O=C(Cn1cnc2nc(N3CCC(C(=O)NC4CC4)CC3)sc2c1=O)Nc1ccc2c(c1)CCC2	670
CCOc1ccc2nc(NC(=O)Cn3nc(C(=O)N4CCCCC4)c4ccccc43)sc2c1	944
Cc1noc(-c2cccc(OC3CN(S(=O)(=O)c4cn(C)cn4)C3)c2)n1	746
CCC(=O)N1CCc2c(C(=O)NC3CCCC3)cccc21	765
Cc1cc2c(=O)n(CC(=O)Nc3cccc(Br)c3)ccc2s1	850
COc1ccccc1Oc1ccc(S(=O)(=O)Nc2cccc(C(C)=O)c2)cc1	887
CCCN(CC1CCOC1)S(=O)(=O)c1cccc(OC)c1 (centres undefined)	881
COc1ccc(N2C(=O)CCC(C(=O)NCCCN3CCCCCC3)C2c2ccc(F)cc2)cc1 (centres undefined)	610
CC(C)C(=O)NC(c1ccc(F)cc1)c1nnc(-c2ccccc2)o1 (centres undefined)	856
CC(C)NC(=O)C1CCN(c2cnn(Cc3ccccc3)c(=O)c2)CC1	689
CC1CCCN(CC2CCN(S(=O)(=O)c3ccc4c(c3)CCC4)CC2)C1 (centres undefined)	719
CCCN1C(=O)C(CC(=O)NC(C)C)Sc2ncccc21 (centres undefined)	680
CCc1cccc2cc([C@@H](O)CNC(C)(C)C)oc12	737

Structure (SMILES)	RP-LC retention time [s]
Cc1cccc(OCc2nc(-c3ccc(-c4csc(C)n4)cc3)no2)c1	1250
COc1nc2ccccc2nc1N1CCCC(C(=O)N2CCCC2)C1 (centres undefined)	856
COc1ccc(Cl)cc1NC(=O)Cn1ncc2c(c1=O)N(CC1CC1)C(=O)CS2	878
Cn1cnnc1SCCNC(=O)CNC(=O)c1ccc(=O)[nH]c1	494
Cc1ccccc1Cc1nc(-c2cccc(-c3ccn[nH]3)c2)no1	985
O=C(Cn1cnc2nc3c(cc2c1=O)CCCC3)NCc1cccc(Br)c1	756
COc1ccc(-c2nnc(-c3ccc(C)c(S(=O)(=O)Nc4cccnc4)c3)o2)cc1OC	722
COCc1nncn1C1CCN(S(=O)(=O)c2ccc(Cl)c(C)c2)CC1	765
CC(=O)Nc1ccc(S(=O)(=O)N2CCC(CC(=O)N3CCN(c4ccccn4)CC3)CC2)cc1	581
CCN1C(=O)COc2ccc(-c3noc(C4CC(=O)N(c5cccc(Cl)c5)C4)n3)cc21 (centres undefined)	1010
Cc1cccc(CN2CCC(CNC(=O)Nc3cn(C)c(=O)c4ccccc34)CC2)c1	603
CCOCCCNC(=O)c1ccc2nc(CCc3ccc(NC(C)=O)cc3)[nH]c2c1	589
CCCCOc1ccc(CNC(=O)CN2CC=C(c3cnn(-c4ccccc4)c3)CC2)cc1	826
Cn1c(=O)sc2cc(S(=O)(=O)N3CCC(C(=O)NCc4cccnc4)CC3)ccc21	603
CS(=O)(=O)Nc1cccc(NC(=O)Cn2cccn2)c1	970
O=C(Nc1c(-c2ccc(F)cc2)nc2ccccn12)c1ccc(Cl)c([N+](=O)[O-])c1	733
O=C(Cn1nc2n(c1=O)CCCC2)NCc1ccc(F)cc1	642
CCOc1ccccc1NC(=O)NC(C)C(=O)N1CCc2ccccc21 (centres undefined)	936
Cc1cccc(S(=O)(=O)N2CC3CN(C(=O)CCC(C)C)CC(C2)O3)c1	871
CC(NC(=O)CC1Sc2ccc(C(F)(F)F)cc2NC1=O)c1ccccc1 (centres undefined)	848
O=C(CCC1CCCN(C(=O)Nc2ccc(F)cc2)C1)NCc1ccc(Cl)cc1 (centres undefined)	856
Cc1nnc(N2CCCC(C(=O)NCCCN3CCCC3=O)C2)c2nn(-c3ccccc3)c(C)c12 (centres undefined)	616
O=C(C1CC1)N1CCc2c([nH]c3ccccc23)C1c1ccc(F)cc1 (centres undefined)	1050

Structure (SMILES)	RP-LC retention time [s]
O=C(NC1CCCc2ccccc21)c1ccc2c(c1)OCCCO2 (centres undefined)	958
CC1(C(=O)NCc2ccccc2)CCN(S(=O)(=O)c2ccc(C3CCCCC3)cc2)CC1	1230
COc1ccc2c(=O)c3c(=O)n(Cc4ccccc4)c(-c4cccs4)nc3oc2c1	743
CCOC(=O)c1nc(NCCc2ccccc2)c2ccccc2n1	769
Cc1cccc(-c2ncccc2CNS(=O)(=O)c2ccc(Cl)s2)c1	785
Cc1cccc(N2CCN(CC(O)c3ccc4c(c3)OCO4)CC2)c1C (centres undefined)	720
CCCCNC(=O)c1c(C)c2c(=O)n(CC(=O)Nc3ccc(Br)cc3)ncn2c1C	826
CCCN(C)S(=O)(=O)c1c(C)nn(-c2ccc(-c3ccccc3)nn2)c1C	1080
Cc1cc(C)cc(NS(=O)(=O)c2cc3c4c(c2)CCC(=O)N4CCC3)c1	874
Cc1nn(CC(=O)NCC2CCN(Cc3ccc(Cl)cc3)CC2)c(=O)c2noc(C)c12	617
CCN(Cc1ccc(OC)cc1)Cc1cc(=O)n2cccc(C)c2n1	618
Cc1cc(Cl)ccc1OCc1nc(-c2cccc(-c3ccn[nH]3)c2)no1	1090
CCc1ccc(C(=O)N2CCCN(C3=NS(=O)(=O)C(c4ccccc4)=C3C)CC2)cc1	894
CCOc1ccc(-n2ccnc(NC(=O)Nc3ccc(C)c(C)c3)c2=O)cc1	1090
O=C(c1cncc(Br)c1)N1CCC(c2nnc(-c3ccco3)s2)CC1	682
COC(=O)C(C)NC(=O)NCc1cccn1Cc1ccccc1F (centres undefined)	804
Cc1nc2c(OCc3ccccc3)cccn2c1CC#N	655
CC1(C(=O)NC2CCCCCCC2)CN(S(C)(=O)=O)CC(=O)N1c1cccc(Cl)c1 (centres undefined)	963
CN1c2ccccc2C(=O)NC12CCN(C(=O)NCc1ccccc1)CC2	705
Cn1cc(-c2cc3n(n2)CCCN3C(=O)CCC(=O)NCCCN2CCCC2)c2ccccc21	620
COc1ccc(CCNc2nc(-c3ccc(Cl)cc3)cs2)cc1OC	1050
COc1ccc(F)cc1S(=O)(=O)N1CCN(c2c(C)nn(-c3ccccc3)c2C)CC1	965
O=C(Cc1csc(-n2cccc2)n1)N1CCC(c2nc3ccccc3[nH]2)CC1	558

Structure (SMILES)	RP-LC retention time [s]
Cc1c(C(=O)N2CCCCC2C)sc2ncn(CC(=O)N3CC(C)CC(C)C3)c(=O)c12 (centres undefined)	846
CSc1ccc(-c2nc3cnccn3c2Nc2ccc(C)cc2)cc1	1000
Cc1noc(C)c1-c1ccc(S(=O)(=O)NCCc2ccc(S(N)(=O)=O)cc2)cc1	740
C=Cc1ccc(COC(=O)C2=CN(CC)S(=O)(=O)N=C2C)cc1	1030
O=C(Cc1cccs1)NC1CCN(c2cc(-c3ccccc3)[nH]n2)C1 (centres undefined)	673
CN1C(=O)COc2ccc(-c3csc(NC(=O)c4ccco4)n3)cc21	806
Cc1ccc(Cc2nc(-c3ccc(-n4ccnc4)nc3)no2)cc1	759
CCCn1cc(S(=O)(=O)CC(=O)Nc2ccc(C(=O)OCC)cc2)c2ccccc21	890
Cc1noc(C)c1CC(=O)NC1CCc2nn(CC3CC3)c(=O)n2CC1 (centres undefined)	625
COCCn1ncc(N2CCC(C(=O)N3CCc4ccccc43)C2)cc1=O (centres undefined)	713
CCC(C)(C)NC(=O)Cn1nc(C)c2nn(-c3ccccc3)c(C)c2c1=O	860
CC(C)C(=O)Nc1nc(-c2ccc(F)cc2)cs1	916
Cc1cc(C)cc(NC(=O)N2CC(CN(C)C)C3(CCCCC3)C2)c1 (centres undefined)	695
CCN1C(=O)c2cccnc2Sc2cc(C(=O)NC3CCCCC3)ccc21	826
CCOC(=O)c1ccccc1NC(=O)Cn1cnc2nc(-c3cccnc3)ncc2c1=O	744
Cc1ccc(NC(=O)NC2CCN(c3ccc(C)c(C)c3)C2=O)c(C)c1 (centres undefined)	949
Cc1c(N2CCC(C(=O)N3CCN(c4ccccn4)CC3)CC2)c(=O)n(C)c(=O)n1-c1ccccc1	618
Cc1ccc(C)c(NC(=O)N2CCN(c3ccc(=O)n(-c4ccccc4)n3)CC2)c1	820
Cc1ccc(S(=O)(=O)N2C[C@H]3CN(C(=O)NCCc4ccccc4)C[C@@H](C2)O3)cc1	834
O=C(C1CCCN(c2nccnc2Sc2ccccc2)C1)N1CCN(c2cccc(Cl)c2)CC1 (centres undefined)	1260
